From ChEMBL document CHEMBL1201862, “PubChem BioAssay data set” (2004)
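Results reflect a 48-hour exposure of cells in 96-well plates to compound at five concentrations. Here, GI50 denotes the concentration required for 50% inhibition of growth.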 Active and inactive are the calls of the source. Rule as the data show it: active = GI50 up to about 1.1 µM and inactive = higher.

Legend:
Experiment in all cases: DTP human tumour cell line panel, 48 h
MDA-MB-231 = test system: MDA-MB-231
U-251 = test system: U-251
SW-620 = test system: SW-620
RXF 393 = test system: RXF 393
Hs-578T = test system: Hs-578T
ACHN = test system: ACHN
NCI-H460 = test system: NCI-H460
OVCAR-5 = test system: OVCAR-5
MOLT-4 = test system: MOLT-4
RPMI-8226 = test system: RPMI-8226
HL-60 = test system: HL-60
NCI-H23 = test system: NCI-H23
TK-10 = test system: TK-10
SR = test system: SR
T47D = test system: T47D
CAKI-1 = test system: CAKI-1
A498 = test system: A498
HOP-92 = test system: HOP-92
IGROV-1 = test system: IGROV-1
KM12 = test system: KM12

SMILES	GI50 (MDA-MB-231)	GI50 (U-251)	GI50 (SW-620)	GI50 (RXF 393)	GI50 (Hs-578T)	GI50 (ACHN)	GI50 (NCI-H460)	GI50 (OVCAR-5)	GI50 (MOLT-4)	GI50 (RPMI-8226)	GI50 (HL-60)	GI50 (NCI-H23)	GI50 (TK-10)	GI50 (SR)	GI50 (T47D)	GI50 (CAKI-1)	GI50 (A498)	GI50 (HOP-92)	GI50 (IGROV-1)	GI50 (KM12)
CC(C)(C)c1cc(C(=O)/C=C/c2ccc3c(c2)OCO3)cc(C(C)(C)C)c1O	8.11 µM (inactive)	6.68 µM (inactive)	5.96 µM (inactive)	1.86 µM (inactive)	6.93 µM (inactive)	8.55 µM (inactive)	4.8 µM (inactive)	16.3 µM (inactive)	5.6 µM (inactive)	4.39 µM (inactive)	3.07 µM (inactive)	9.82 µM (inactive)	9.91 µM (inactive)	2.18 µM (inactive)	2.55 µM (inactive)	9.29 µM (inactive)	10.3 µM (inactive)	25.6 µM (inactive)	17.9 µM (inactive)	5.05 µM (inactive)
O=Cc1ccc(-c2nccc3c2[nH]c2ccccc23)o1	> 85.1 µM (inactive)	68.9 µM (inactive)	> 100 µM (inactive)	22.2 µM (inactive)	19.4 µM (inactive)	> 100 µM (inactive)	38.9 µM (inactive)	12.3 µM (inactive)	> 94.8 µM (inactive)	> 81.8 µM (inactive)	74.8 µM (inactive)	> 100 µM (inactive)	7.36 µM (inactive)	> 100 µM (inactive)	47.9 µM (inactive)	4.91 µM (inactive)	0.585 µM (active)	44.6 µM (inactive)	> 73.3 µM (inactive)	> 100 µM (inactive)
Clc1cccc(/C=N/C23CC4CC(CC(C4)C2)C3)c1Cl	> 10 µM (inactive)	> 10 µM (inactive)	> 10 µM (inactive)	> 10 µM (inactive)	> 10 µM (inactive)	> 10 µM (inactive)	> 10 µM (inactive)	> 10 µM (inactive)		> 10 µM (inactive)	6.28 µM (inactive)	> 10 µM (inactive)	> 10 µM (inactive)	0.637 µM (active)	> 10 µM (inactive)	> 10 µM (inactive)	> 10 µM (inactive)	> 10 µM (inactive)	> 10 µM (inactive)	> 10 µM (inactive)
CN(C)CCNc1ccccn1	> 100 µM (inactive)	> 100 µM (inactive)	> 100 µM (inactive)	> 100 µM (inactive)	> 100 µM (inactive)	> 100 µM (inactive)	> 100 µM (inactive)	> 100 µM (inactive)	> 100 µM (inactive)		> 100 µM (inactive)	> 100 µM (inactive)	> 100 µM (inactive)	> 100 µM (inactive)	> 100 µM (inactive)	> 100 µM (inactive)	> 100 µM (inactive)	> 100 µM (inactive)	> 100 µM (inactive)	> 100 µM (inactive)
C=CC(C)(C)n1cc(C2=C(O)C(=O)C(c3cn(C(C)(C)C=C)c4ccccc34)=C(OC(C)=O)C2=O)c2ccccc21	1.3 µM (inactive)	0.426 µM (active)	1.53 µM (inactive)	0.929 µM (active)	0.646 µM (active)	1.27 µM (inactive)	0.592 µM (active)	1.66 µM (inactive)	0.475 µM (active)	0.984 µM (active)	0.571 µM (active)	0.692 µM (active)		0.298 µM (active)	1.68 µM (inactive)	1.08 µM (active)	0.853 µM (active)	0.598 µM (active)	0.435 µM (active)	0.565 µM (active)
Cc1ccccc1S(=O)(=O)OC1NS(=O)(=O)c2ccccc21 (configuration not stated)	> 100 µM (inactive)	> 100 µM (inactive)	> 100 µM (inactive)	> 100 µM (inactive)	> 100 µM (inactive)	> 100 µM (inactive)	> 100 µM (inactive)	> 100 µM (inactive)	> 100 µM (inactive)	> 100 µM (inactive)		> 100 µM (inactive)	> 100 µM (inactive)	> 100 µM (inactive)	> 100 µM (inactive)	> 100 µM (inactive)	> 100 µM (inactive)	> 100 µM (inactive)	> 100 µM (inactive)	> 100 µM (inactive)
CN(C)CCn1c(=O)c2ccc(NCCNCCO)c3c(=O)c4ccccc4n(c1=O)c23	0.22 µM (active)	0.0468 µM (active)	0.027 µM (active)		0.23 µM (active)	0.0116 µM (active)	< 0.01 µM (active)	0.298 µM (active)	< 0.01 µM (active)	< 0.0394 µM (active)	< 0.01 µM (active)	0.0342 µM (active)	0.764 µM (active)	< 0.01 µM (active)	0.129 µM (active)	< 0.0108 µM (active)	0.106 µM (active)	0.03 µM (active)	0.0596 µM (active)	0.249 µM (active)
O=c1cc(/C=C/c2ccc(O)c(O)c2)oc(/C=C/c2ccc(O)c(O)c2)c1	4.44 µM (inactive)	2.74 µM (inactive)	4.83 µM (inactive)	2.72 µM (inactive)	4.09 µM (inactive)	4.84 µM (inactive)	5.02 µM (inactive)	17.2 µM (inactive)	1.83 µM (inactive)	6.58 µM (inactive)		4.57 µM (inactive)	7.33 µM (inactive)	1.07 µM (active)	1.98 µM (inactive)	3.37 µM (inactive)	3.84 µM (inactive)	2.48 µM (inactive)	4.17 µM (inactive)	4.37 µM (inactive)
Cc1cc(=O)oc2c(CN(CCCl)CCCl)c(O)ccc12	> 100 µM (inactive)	38.4 µM (inactive)	14 µM (inactive)	30.5 µM (inactive)	72.3 µM (inactive)	13.6 µM (inactive)	17.4 µM (inactive)	> 100 µM (inactive)	4.99 µM (inactive)	19.1 µM (inactive)	4.3 µM (inactive)	43.3 µM (inactive)		43.6 µM (inactive)	31.5 µM (inactive)	6.78 µM (inactive)	62.7 µM (inactive)	> 100 µM (inactive)	55.7 µM (inactive)	78.7 µM (inactive)
NNC(=O)CCCCCCCC(=O)O	> 100 µM (inactive)	> 100 µM (inactive)	> 100 µM (inactive)		> 100 µM (inactive)	> 100 µM (inactive)	> 100 µM (inactive)	> 100 µM (inactive)	> 100 µM (inactive)	> 100 µM (inactive)	> 100 µM (inactive)	> 100 µM (inactive)	> 100 µM (inactive)	> 100 µM (inactive)	> 100 µM (inactive)	> 100 µM (inactive)	> 100 µM (inactive)	> 100 µM (inactive)	> 100 µM (inactive)	> 100 µM (inactive)
CC(=O)OCC1OC(SC2=NC(=O)/C(=C/c3ccccc3)S2)C(OC(C)=O)C(OC(C)=O)C1OC(C)=O (configuration not stated)	23.3 µM (inactive)	30.9 µM (inactive)	23.8 µM (inactive)	26 µM (inactive)	23.3 µM (inactive)	48.2 µM (inactive)	42.2 µM (inactive)	> 100 µM (inactive)	21.8 µM (inactive)	24.4 µM (inactive)	14.5 µM (inactive)	52.5 µM (inactive)		10.9 µM (inactive)	24.2 µM (inactive)	3.78 µM (inactive)	29 µM (inactive)	15.7 µM (inactive)	35.8 µM (inactive)	36.9 µM (inactive)
CCOC(=O)Cn1sc2ncc([N+](=O)[O-])cc2c1=O	15.7 µM (inactive)		16.1 µM (inactive)	20 µM (inactive)	41 µM (inactive)	15.9 µM (inactive)	17.1 µM (inactive)	19.2 µM (inactive)	2.86 µM (inactive)	8 µM (inactive)	8.15 µM (inactive)	17.9 µM (inactive)	17.9 µM (inactive)	4.02 µM (inactive)	16.5 µM (inactive)		> 100 µM (inactive)	13.3 µM (inactive)	13.2 µM (inactive)	18.5 µM (inactive)
CCOC(=O)CCC(NC(=O)c1ccc(Oc2nc3c(N)cc(C(F)(F)F)cc3nc2-c2ccccc2)cc1)C(=O)OCC (configuration not stated)	19 µM (inactive)	32.6 µM (inactive)	> 100 µM (inactive)	0.402 µM (active)	11.7 µM (inactive)	8.24 µM (inactive)	54.3 µM (inactive)		> 100 µM (inactive)	> 45.9 µM (inactive)	38.8 µM (inactive)	21.3 µM (inactive)	14.6 µM (inactive)	9.95 µM (inactive)	39.6 µM (inactive)	2.82 µM (inactive)	> 35.5 µM (inactive)	56.8 µM (inactive)	33.4 µM (inactive)	19.5 µM (inactive)
N#Cc1c(N)c2c(c(-c3ccccc3)c1-c1ccccc1)C(=O)N(NC(=S)Nc1ccccc1)C2=O	> 100 µM (inactive)	> 100 µM (inactive)	> 100 µM (inactive)	16.9 µM (inactive)	39.4 µM (inactive)	94.2 µM (inactive)	61.4 µM (inactive)	35.2 µM (inactive)	46.8 µM (inactive)	16.7 µM (inactive)	37.9 µM (inactive)		84.5 µM (inactive)	68.7 µM (inactive)	48.2 µM (inactive)	> 100 µM (inactive)	43.3 µM (inactive)	34.2 µM (inactive)	43 µM (inactive)	75.7 µM (inactive)
